Laboratory results reported in PubChem BioAssay AID179 (DTP/NCI, 2004).
Values joined by “and” are separate entries in the source; they are usually repeats but may differ in a detail not shown here. Equal entries are not always repeated. Active and inactive are the calls of the source.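 How the source made its calls: active means compounds giving half or more protection of infected cells from virus-caused growth loss, again on retest; inactive means the rest.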

System: CEM cells HIV-1 protection, formazan growth assay
Experiment: NCI AIDS Antiviral Assay
Conditions: for IC50: measured here: growth of uninfected CEM cells
Summary of the method: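 CEM (human) cells, HIV-1 infected vs uninfected, 5-point dosing, formazan growth read-out. Retest threshold 50% protection.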

CCN(CC)C(=O)Cc1c(C(=O)N(CC)CC)c(=O)nc2sccn12
EC50: > 692 µM
IC50: > 692 µM

CC(O)CCC(=O)c1ccoc1 (stereo not drawn)
EC50: > 1480 µM
IC50: > 1480 µM

COc1cc(Nc2nc3cc(C(F)(F)F)ccc3nc2C)cc(OC)c1OC
EC50: > 60.3 µM
IC50: 31.6 µM

COc1ccccc1NC(=O)C1=C(C)NC(C)=C(C(=O)Nc2ccccc2OC)C1c1ccccc1[N+](=O)[O-]
EC50: > 13.5 µM
IC50: > 13.5 µM

C=C1C(=O)O[C@H]2C1C(OC(=O)/C(C)=C/C)C(OC(C)=O)[C@@](C)(O)C1C2C(C)=C[C@H]1OC(C)=O (stereo partly drawn)
EC50: > 141 µM
IC50: 6.17 µM

O=C(O)c1ccccc1-c1c2cc([N+](=O)[O-])c(=O)c(Br)c-2oc2c(Br)c(O)c([N+](=O)[O-])cc12
EC50: > 316 µM
IC50: 8.13 µM

CC1=C(C)CS(=O)N(c2ccccc2)C1 (stereo not drawn)
EC50: > 200 µM
IC50: 89.1 µM

CC12CC3CC/C(=N\O)C(C1)C3(N1CCOCC1)C/C2=N/O (stereo not drawn)
EC50: > 200 µM
IC50: > 200 µM

COc1ccc(NC(=S)N=Nc2c(O)[nH]c3ccccc23)cc1
EC50: > 200 µM

CC(C)(C)[Si](C)(C)OCCc1ccccc1C1CC2(S(=O)(=O)c3ccccc3)ON1CC2S(=O)(=O)c1ccccc1 (stereo not drawn)
EC50: > 16.2 µM
IC50: > 16.2 µM

Cc1cc2nc3c4ccccc4n(C)c3nc2cc1C
EC50: > 7.59 µM
IC50: 5.25 µM

OCc1ccc2c(c1)CC1(C2)Cc2cc3c(cc2C1)CCC3
EC50: > 200 µM
IC50: 0.977 µM

CC(OC(C)(C)C)[C@H](NC(=O)OCC(Cl)(Cl)Cl)C(=O)O (stereo partly drawn)
EC50: > 200 µM
IC50: > 200 µM

Clc1ccccc1C(n1cc(Br)cn1)n1cc(Br)cn1
outcome: inactive

c1cnc2c(c1)-n1cccc1C1(CCSC1)NN2 (stereo not drawn)
EC50: > 138 µM
IC50: > 138 µM

O=C(/C=C/c1ccc(O)c(O)c1)OCCc1cccc2ccccc12
EC50: > 200 µM
IC50: 2.75 µM

CN(C)/C=N\c1nn[nH]n1
EC50: > 200 µM
IC50: 3.63 µM

O=c1c2cnccc2cc2n1CCc1c-2[nH]c2ccccc12
EC50: > 77.6 µM
IC50: 10.2 µM

O=C(CCc1cccc(O)c1)NCCc1cccc(O)c1
EC50: > 200 µM
IC50: > 200 µM

CCOC(=O)/C(C#N)=C/c1ccc(-c2ccccc2)cc1
EC50: > 25.7 µM
IC50: > 25.7 µM

CN(C)C1=CC(=O)C(=O)c2ccncc21
outcome: inactive

CCCCc1ccc(Nc2nc3c(ncn3COCCO)c(=O)[nH]2)cc1
EC50: > 200 µM
IC50: > 200 µM

CC1C(=O)c2cc3c(cc2CCN(C)Cc2c1ccc1c2OCO1)OCO3 (stereo not drawn)
EC50: > 70.8 µM
IC50: > 70.8 µM

CC(=O)NC1CCC(NC(=O)OC(C)(C)C)C(NC(=O)OC(C)(C)C)C1 (stereo not drawn)
EC50: > 200 µM
IC50: > 200 µM

CCC(C)C(NC(=O)C(N)CCCN=C(N)N)C(=O)NC(CCC(N)=O)C(=O)NC(CCCN=C(N)N)C(=O)NCC(=O)N1CCCC1C(=O)NCC(=O)NC(CCCN=C(N)N)C(=O)NC(C)C(=O)NC(Cc1ccccc1)C(=O)NC(C(=O)NC(C(=O)NC(C(=O)NCC(=O)NC(CCCCN)C(N)=O)C(C)CC)C(C)OC1OC(CO)C(O)C(O)C1NC(C)=O)C(C)C (stereo not drawn)
EC50: > 50.1 µM
IC50: > 50.1 µM

O=C1/C(=C/c2ccc(Br)s2)NC(=S)N1c1ccccc1
EC50: > 200 µM
IC50: 95.5 µM

CCOC(=O)C1C(c2ccccc2)=C(c2ccccc2)C(c2ccccc2)=C1c1ccccc1
outcome: inactive

COc1cc2c(cc1O)Cc1c-2[n+](C)cc2cc(OC)c(OC)cc12
EC50: > 347 µM
IC50: 1.62 µM

c1ccc(C2C3=C(CCCC3)Nc3nc4cc5ccccc5cc4n32)cc1 (stereo not drawn)
EC50: > 200 µM
IC50: > 200 µM

O=C(CC(=O)n1nc(-c2ccccc2)c(N=Nc2ccccc2C(=O)O)c1-c1ccccc1)Nc1ccc(Cl)cc1
EC50: > 200 µM
IC50: 77.6 µM

Cc1cccc(/C=N/NC(=S)NC2CCCCC2)n1
EC50: > 200 µM
IC50: 10 µM

N#Cc1sc2c(c1O)c(=O)n(-c1ccccc1)c(=S)n2-c1ccccc1
EC50: > 661 µM
IC50: 30.9 µM

C1CSCC2(COC2)CS1
EC50: > 1410 µM
IC50: 1320 µM

CN1C(=O)CNS1(=O)=O
outcome: inactive

CCOC(=O)NC1C2CC(=O)OC(O2)C1OC(C)=O (stereo not drawn)
EC50: > 912 µM
IC50: 39.8 µM

CN(CCCNC(=O)c1cc(-c2ccccc2)nc2ccccc12)CCCNC(=O)c1cc(-c2ccccc2)nc2ccccc12
EC50: > 20 µM
IC50: 3.39 µM

N#CC1(C#N)C2C=CC(C3CCC=C32)C1(C#N)C#N (stereo not drawn)
EC50: > 200 µM
IC50: 7.76 µM

Cc1cc(NS(=O)(=O)c2ccc(NC(=O)c3ccc(Cl)c4c(Nc5ccc(S(=O)(=O)Nc6cc(C)on6)cc5)c5ccccc5nc34)cc2)no1
EC50: > 47.9 µM
IC50: > 47.9 µM

CC(C)(O)[C@H]1OC2CC[C@@]3(C)C(O)(CC[C@H]4Cc5c([nH]c6ccccc56)C43C)C2=CC1=O (stereo partly drawn)
EC50: > 200 µM
IC50: 13.8 µM

O=C(NC(Nc1ccc(F)c(Cl)c1)(C(F)(F)F)C(F)(F)F)C(C(F)(F)F)C(F)(F)F
EC50: > 200 µM

CCC1=C(CC)C1(C#N)[N+](=O)[O-]
EC50: > 251 µM
IC50: > 251 µM

CSc1nc(C#N)c(/N=C\N(C)C)n1C
EC50: > 200 µM
IC50: > 200 µM

COC1(c2ccccc2)Oc2ccccc2C(=O)C1(O)C[N+](=O)[O-] (stereo not drawn)
EC50: > 200 µM
IC50: 15.5 µM

CCC[CH2][Sn]([CH2]CCC)([O]C(=O)c1cc(OC)c(OC)c(OC)c1)[O]C(=O)c1cc(OC)c(OC)c(OC)c1
EC50: > 11 µM
IC50: 1.45 µM

O=C(OC1=C(OC(=O)c2ccc(N=Nc3ccccc3)cc2)c2ccccc21)c1ccc(N=Nc2ccccc2)cc1
EC50: > 200 µM
IC50: > 200 µM

CCC1(C)CC(=O)NC1=O (stereo not drawn)
EC50: > 37.2 µM
IC50: > 37.2 µM

Cc1nc(CC#N)n[nH]1
EC50: > 200 µM
IC50: > 200 µM

CC(C)NCC(O)c1cc(OCc2ccccc2)c(OCc2ccccc2)cc1NC(=O)CCC(=O)O (stereo not drawn)
EC50: > 200 µM
IC50: 1.58 µM

COc1cc(C=Nc2ccc(C(C)C)cc2)cc(OC)c1OC
EC50: > 16.6 µM
IC50: > 16.6 µM

CCN(CC)CCCNc1nccc2c(C)c3[nH]c4ccncc4c(=O)c3cc12
EC50: > 174 µM
IC50: 1.07 µM

COc1cccc2c1C(=O)c1c(O)c3c(c(O)c1C2=O)C[C@@](O)(C(C)=O)C[C@@H]3OC1CC(N)C(O)C(C)O1 (stereo partly drawn)
EC50: > 4.47 µM
IC50: 0.0038 µM

CCCCCCCCCCCCCCCC(O)S(=O)(=O)O (stereo not drawn)
EC50: > 100 µM
IC50: 15.1 µM

CC1=C(C(=O)Nc2ccccc2)C(c2ccc(C(C)C)cc2)C(C(=O)Nc2ccccc2)=C(C)N1
outcome: inactive

CSCCCNC(=O)c1csc(-c2csc(C(CNC(=O)OC(C)(C)C)CNC(=O)OC(C)(C)C)n2)n1
EC50: > 200 µM
IC50: 22.4 µM

CC1(C)OC(=O)c2c(cc(N3CCOCC3)oc2=O)O1
EC50: > 200 µM
IC50: > 200 µM

COC(=O)C(Cc1c(-c2[nH]c3ccccc3c2CC(NC(C)=O)C(=O)OC)[nH]c2ccccc12)NC(C)=O (stereo not drawn)
EC50: > 200 µM
IC50: > 200 µM

COc1ccc(/C=C/C(=O)c2cccc(C(=O)/C=C/c3ccc(OC)c(OC)c3)n2)cc1OC
EC50: > 200 µM
IC50: 110 µM

O=C1OC(O)C(Oc2c(Cl)cccc2Cl)=C1Cl (stereo not drawn)
EC50: > 40.7 µM
IC50: 19.1 µM

Cc1cc(=O)[nH]c2c3c(ccc12)OC(C)(C)C=C3
EC50: > 200 µM
IC50: 3.72 µM

COC12OCCN(CCO)C1=CC(=O)C1(C)N=NC(C)C12 (stereo not drawn)
outcome: inactive

O=P1(Cc2ccccc2)OC2CC(Cl)CC(C2)O1 (stereo not drawn)
EC50: > 126 µM
IC50: > 126 µM

Cn1c(O)c(N=NC(N)=S)c2ccccc21
EC50: > 200 µM
outcome: inactive
IC50: 186 µM

O=C(N/N=C(\c1nc2ccc(Cl)cc2[nH]c1=O)C(O)c1ccccc1Cl)c1ccncc1 (stereo not drawn)
EC50: > 537 µM
IC50: > 537 µM

COc1ccc(NC(C)=O)cc1N1C(=O)/C(=C\c2cccc(Oc3ccccc3)c2)SC1c1ccccc1 (stereo not drawn)
EC50: > 200 µM
IC50: 18.6 µM

Cc1cn(C(Cc2ccccc2)OCCN2C(=O)c3ccccc3C2=O)c(=O)[nH]c1=O (stereo not drawn)
EC50: > 200 µM
IC50: > 200 µM

Cc1cc(=O)[nH]c(NNC(C#N)c2ccc([N+](=O)[O-])cc2)n1 (stereo not drawn)
EC50: > 63.1 µM
IC50: > 63.1 µM

c1ccc([P+](Cc2ccccc2C[P+](c2ccccc2)(c2ccccc2)c2ccccc2)(c2ccccc2)c2ccccc2)cc1
EC50: > 200 µM
IC50: 129 µM and 107 µM

COc1ccc(OC(C)C(=O)O)c2c(=O)ccccc12 (stereo not drawn)
outcome: inactive

CCOC(=O)C(=CNC(Cc1c[nH]c2ccccc12)C(=O)OC)C(=O)OCC (stereo not drawn)
outcome: inactive

CCN1C(=O)CS/C1=N/NC(=O)C(O)(c1ccccc1)C1C=CC=CC1 (stereo not drawn)
EC50: > 200 µM
IC50: > 200 µM

Nc1ccc2c(c1)CN1C(=O)c3ccccc3C1=N2
EC50: > 15.1 µM
IC50: 2.95 µM

Cc1ccc(-n2[nH]nc(C(N)=O)c2=O)cc1
EC50: > 200 µM
IC50: > 200 µM

CC(=O)N/N=C(\C=C\c1ccccc1)c1ccccc1OC(C)=O
EC50: > 200 µM
IC50: 107 µM

COc1ccc(C(=O)/C(=N/Nc2ccccc2)c2ccc(OC)cc2)cc1
outcome: inactive

Cc1cc(NS(=O)(=O)c2ccc(Nc3c4ccccc4nc4c(C(=O)Nc5ccc(S(=O)(=O)N=C(N)N)cc5)cccc34)cc2)no1
EC50: 18.6 µM
IC50: 53.7 µM

Cc1cc(C)[n+]([O-])c(C)c1
EC50: > 1820 µM
IC50: 977 µM

C[N+]12C=CC=C1C(N1CCCC1)c1sc(-c3ccc(Cl)cc3)cc12 (stereo not drawn)
EC50: > 200 µM
IC50: 12.9 µM

CN(C)CC1CC(=O)C(CN(C)C)CC1=O (stereo not drawn)
EC50: > 832 µM
IC50: 2.51 µM

CN(C(=O)C1=CCCCCC1)c1ccccc1I
EC50: > 200 µM
IC50: 38.9 µM

COc1ccc(C2C(Cl)C(=O)N2NC(=O)c2ccccc2O)cc1OC (stereo not drawn)
EC50: > 50.1 µM
IC50: 41.7 µM

N#CC(C#N)C1CN2CCC1CC2 (stereo not drawn)
EC50: > 200 µM
IC50: > 200 µM

CCN(CCN(CC)C(=O)NC)C(=O)NC
EC50: > 200 µM
IC50: > 200 µM

C[N+](C)(C)CC1CCCC(C[N+](C)(C)C)C1=NO (stereo not drawn)
outcome: inactive

O=C1COC(C(=O)c2ccccc2)C(=O)N1 (stereo not drawn)
EC50: > 117 µM
IC50: > 117 µM

O=C1c2cccn2-c2ccccc2OC1c1ccc(NC(=S)Nc2ccc(Cl)cn2)cc1 (stereo not drawn)
EC50: > 200 µM
IC50: 15.8 µM

CCOP(=S)(N/N=C1\CC2CCC1C2)OCC (stereo not drawn)
EC50: > 200 µM
IC50: > 200 µM

O=C1Nc2nc(=O)nc3[nH]c(=O)nc(n23)N1
EC50: > 251 µM
IC50: > 251 µM
